Data published in ChEMBL document CHEMBL1201862, “PubChem BioAssay data set” (2004).
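The compound was tested at five concentrations on cells cultured in 96-well plates, with a 48-hour exposure period. GI50 = concentration required for 50% inhibition of growth.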 Calls of active or inactive are those of the source. Cut-off read from the data, not from the text of the source: active = GI50 up to about 1.1 µM and inactive = higher.

Legend:
Assay in all cases: NCI tumour cell line growth inhibition, 48 h
RPMI-8226 = tested on: RPMI-8226
CAKI-1 = tested on: CAKI-1
HL-60 = tested on: HL-60
K562 = tested on: K562
COLO 205 = tested on: COLO 205
IGROV-1 = tested on: IGROV-1
U-251 = tested on: U-251
SN12C = tested on: SN12C
SF-539 = tested on: SF-539
LOX IMVI = tested on: LOX IMVI
TK-10 = tested on: TK-10
UACC-62 = tested on: UACC-62
SNB-19 = tested on: SNB-19
SK-OV-3 = tested on: SK-OV-3
HOP-92 = tested on: HOP-92
NCI-H460 = tested on: NCI-H460
SF-268 = tested on: SF-268
SR = tested on: SR
MCF7 = tested on: MCF7
HOP-62 = tested on: HOP-62

COC(=O)NN1C(=O)C(=P(c2ccccc2)(c2ccccc2)c2ccccc2)C(C(=O)OC)=C1C
GI50 (RPMI-8226): 60.5 µM (inactive)
GI50 (CAKI-1): > 100 µM (inactive)
GI50 (HL-60): 52.5 µM (inactive)
GI50 (K562): > 100 µM (inactive)
GI50 (COLO 205): > 100 µM (inactive)
GI50 (IGROV-1): > 100 µM (inactive)
GI50 (U-251): > 100 µM (inactive)
GI50 (SN12C): > 100 µM (inactive)
GI50 (SF-539): > 100 µM (inactive)
GI50 (LOX IMVI): > 100 µM (inactive)
GI50 (TK-10): > 100 µM (inactive)
GI50 (UACC-62): > 100 µM (inactive)
GI50 (SNB-19): > 100 µM (inactive)
GI50 (SK-OV-3): > 100 µM (inactive)
GI50 (HOP-92): 12.6 µM (inactive)
GI50 (NCI-H460): > 100 µM (inactive)
GI50 (SF-268): > 100 µM (inactive)

CSc1ccccc1P(c1ccccc1SC)c1ccccc1SC
GI50 (RPMI-8226): > 100 µM (inactive)
GI50 (CAKI-1): > 100 µM (inactive)
GI50 (K562): > 100 µM (inactive)
GI50 (SR): > 100 µM (inactive)
GI50 (U-251): 31.6 µM (inactive)
GI50 (SN12C): > 100 µM (inactive)
GI50 (SF-539): > 100 µM (inactive)
GI50 (MCF7): > 100 µM (inactive)
GI50 (LOX IMVI): > 100 µM (inactive)
GI50 (HOP-62): 25.4 µM (inactive)
GI50 (TK-10): > 100 µM (inactive)
GI50 (UACC-62): > 100 µM (inactive)
GI50 (SNB-19): > 100 µM (inactive)
GI50 (SK-OV-3): > 100 µM (inactive)
GI50 (HOP-92): > 100 µM (inactive)
GI50 (SF-268): > 100 µM (inactive)

CCOC(=O)C(=O)Nc1c(CC)cccc1C(C)CC (configuration not stated)
GI50 (RPMI-8226): > 100 µM (inactive)
GI50 (CAKI-1): > 100 µM (inactive)
GI50 (HL-60): > 100 µM (inactive)
GI50 (K562): > 100 µM (inactive)
GI50 (COLO 205): > 100 µM (inactive)
GI50 (IGROV-1): > 100 µM (inactive)
GI50 (SR): > 100 µM (inactive)
GI50 (U-251): > 100 µM (inactive)
GI50 (SN12C): > 100 µM (inactive)
GI50 (SF-539): > 100 µM (inactive)
GI50 (LOX IMVI): > 100 µM (inactive)
GI50 (HOP-62): > 100 µM (inactive)
GI50 (TK-10): > 100 µM (inactive)
GI50 (UACC-62): > 100 µM (inactive)
GI50 (SNB-19): > 100 µM (inactive)
GI50 (SK-OV-3): > 100 µM (inactive)
GI50 (HOP-92): > 100 µM (inactive)
GI50 (NCI-H460): > 100 µM (inactive)
GI50 (SF-268): > 100 µM (inactive)

COC1CCC2C(=O)CCCC2O1 (configuration not stated)
GI50 (RPMI-8226): > 100 µM (inactive)
GI50 (CAKI-1): > 100 µM (inactive)
GI50 (HL-60): > 100 µM (inactive)
GI50 (K562): > 100 µM (inactive)
GI50 (COLO 205): > 100 µM (inactive)
GI50 (IGROV-1): > 100 µM (inactive)
GI50 (SR): > 100 µM (inactive)
GI50 (U-251): > 100 µM (inactive)
GI50 (SN12C): > 100 µM (inactive)
GI50 (SF-539): > 100 µM (inactive)
GI50 (HOP-62): > 100 µM (inactive)
GI50 (TK-10): > 100 µM (inactive)
GI50 (UACC-62): > 100 µM (inactive)
GI50 (SNB-19): > 100 µM (inactive)
GI50 (SK-OV-3): > 100 µM (inactive)
GI50 (HOP-92): > 100 µM (inactive)
GI50 (NCI-H460): > 100 µM (inactive)
GI50 (SF-268): > 100 µM (inactive)

O=S1(=O)C[C@H](NCc2ccccc2)[C@H](NCc2ccccc2)C1
GI50 (RPMI-8226): 22.8 µM (inactive)
GI50 (CAKI-1): > 100 µM (inactive)
GI50 (K562): 54.5 µM (inactive)
GI50 (COLO 205): > 100 µM (inactive)
GI50 (IGROV-1): > 100 µM (inactive)
GI50 (SR): 18.4 µM (inactive)
GI50 (U-251): 93.8 µM (inactive)
GI50 (SN12C): > 100 µM (inactive)
GI50 (SF-539): > 100 µM (inactive)
GI50 (MCF7): 83.8 µM (inactive)
GI50 (LOX IMVI): > 100 µM (inactive)
GI50 (HOP-62): > 100 µM (inactive)
GI50 (TK-10): > 100 µM (inactive)
GI50 (UACC-62): > 100 µM (inactive)
GI50 (SNB-19): > 100 µM (inactive)
GI50 (SK-OV-3): > 100 µM (inactive)
GI50 (HOP-92): > 100 µM (inactive)
GI50 (NCI-H460): > 100 µM (inactive)
GI50 (SF-268): > 100 µM (inactive)

COc1ccc(N[C@H](C[S+]([O-])c2ccc(C)cc2)C(F)(F)C(F)(F)F)cc1 (some centres not stated)
GI50 (RPMI-8226): > 100 µM (inactive)
GI50 (CAKI-1): > 100 µM (inactive)
GI50 (HL-60): > 100 µM (inactive)
GI50 (K562): > 100 µM (inactive)
GI50 (COLO 205): > 100 µM (inactive)
GI50 (IGROV-1): > 100 µM (inactive)
GI50 (U-251): 37.4 µM (inactive)
GI50 (SN12C): > 100 µM (inactive)
GI50 (SF-539): 64.6 µM (inactive)
GI50 (MCF7): > 100 µM (inactive)
GI50 (LOX IMVI): 91.4 µM (inactive)
GI50 (HOP-62): 57.5 µM (inactive)
GI50 (TK-10): > 100 µM (inactive)
GI50 (UACC-62): 43 µM (inactive)
GI50 (SNB-19): 35.8 µM (inactive)
GI50 (SK-OV-3): 44.1 µM (inactive)
GI50 (HOP-92): 26.1 µM (inactive)
GI50 (NCI-H460): > 100 µM (inactive)
GI50 (SF-268): 52.8 µM (inactive)

Nc1nnc(O)c2c1c(I)cn2C1OC(CO)C(O)C1O (configuration not stated)
GI50 (RPMI-8226): 0.35 µM (active)
GI50 (HL-60): 0.118 µM (active)
GI50 (K562): 0.75 µM (active)
GI50 (COLO 205): 0.708 µM (active)
GI50 (IGROV-1): 0.643 µM (active)
GI50 (SR): 0.0466 µM (active)
GI50 (U-251): 1.09 µM (active)
GI50 (SN12C): 0.284 µM (active)
GI50 (SF-539): 0.526 µM (active)
GI50 (LOX IMVI): 0.112 µM (active)
GI50 (HOP-62): 2.5 µM (inactive)
GI50 (TK-10): 3.01 µM (inactive)
GI50 (UACC-62): 3.12 µM (inactive)
GI50 (SNB-19): 7.93 µM (inactive)
GI50 (SK-OV-3): > 100 µM (inactive)
GI50 (HOP-92): 0.805 µM (active)
GI50 (NCI-H460): 0.0728 µM (active)
GI50 (SF-268): 2.21 µM (inactive)

CCCCOc1ccc2c(c1)CC[C@@H]1[C@@H]2CC[C@]2(C)C(=O)N(CCCC)C(=O)C[C@@H]12
GI50 (RPMI-8226): 65.9 µM (inactive)
GI50 (CAKI-1): > 100 µM (inactive)
GI50 (HL-60): 44.4 µM (inactive)
GI50 (K562): 6.37 µM (inactive)
GI50 (COLO 205): 91.8 µM (inactive)
GI50 (IGROV-1): > 100 µM (inactive)
GI50 (SR): > 100 µM (inactive)
GI50 (U-251): > 100 µM (inactive)
GI50 (SN12C): > 100 µM (inactive)
GI50 (MCF7): > 100 µM (inactive)
GI50 (HOP-62): > 100 µM (inactive)
GI50 (UACC-62): > 100 µM (inactive)
GI50 (SNB-19): > 100 µM (inactive)
GI50 (SK-OV-3): > 100 µM (inactive)
GI50 (HOP-92): > 100 µM (inactive)
GI50 (NCI-H460): > 100 µM (inactive)
